Measurements from patent publication US8008092B2, “CCR3 inhibition for ocular angiogenesis and macular degeneration” (University of Kentucky Research Foundation, priority 2007, dated 2011).

B1: Eotaxin-2: recombinant human eotaxin-2 (Peprotech), CCR3 ligand (protein, UniProt O00175 27-119, looked up)
C-C motif chemokine 24: VVIPSPCCMFFVSKRIPENRVVSYQLSSRSTCLKAGVIFTTKKGQQFCGDPKQEWVQRYMKNLDAKQKKASPRARAVAVKGPVQRYPGNQTTC
B2: Eotaxin-3: recombinant human eotaxin-3 (Peprotech), CCR3 ligand (protein, UniProt Q9Y258 24-94, looked up)
C-C motif chemokine 26: TRGSDISKTCCFQYSHKPLPWTWVRSYEFTSNSCSQRAVIFTTKRGKKVCTHPRKKWVQKYISLLKTPKQL

Key:
[1] = tested on: choroidal neovascularization (CNV); assay: Laser-induced choroidal neovascularization (CNV) volume, intravitreous injection; type: in vivo, C57BL/6J mice; conditions: wild-type mice, injected into the vitreous humor immediately after laser injury; compared to vehicle control (DMSO)
Protocol: Laser photocoagulation (532 nm, 200 mW, 100 ms, 75 μm) (OcuLight GL, Iridex Corporation) was performed (volume studies: 3/eye; protein analyses/flow cytometry: 12/eye) on both eyes of each animal to induce CNV (choroidal neovascularization). CNV volumes were measured by scanning laser confocal microscope (TCS SP, Leica) with 0.5% FITC-Griffonia simplicifolia Isolectin B4 (Vector Laboratories). CNV was induced by laser injury in C57BL/6J and Ccr3^−/− mice and volumes measured 7 days later by confocal evaluation of Griffonia simplicifolia Isolectin B4 staining of RPE-choroid flatmounts. […]
Because the probability of each laser lesion developing CNV is influenced by the group to which it belongs, the mouse, the eye, and the laser spot, the mean lesion volumes were compared using a linear mixed model with a split plot repeated measures design. […] Statistical significance was determined at the 0.05 level. […]
Laser photocoagulation (532 nm, 200 mW, 100 ms, 75 μm) (OcuLight GL, Iridex Corporation) was performed (volume studies: 3/eye; protein analyses/flow cytometry: 12/eye) on both eyes of each animal to induce CNV. CNV volumes were measured by scanning laser confocal microscope (TCS SP, Leica) with 0.5% FITC-Griffonia simplicifolia Isolectin B4 (Vector Laboratories) or 0.5% FITC-rat antibody against mouse CD31 (BD Biosciences). […]

primary hCEC = assay: F-actin polymerization assay; type: cell-based, human; conditions: eotaxin-1 10 ng/mL, eotaxin-2 100 ng/mL, eotaxin-3 2 μg/mL
Protocol: A F-actin polymerization assay was performed. 10,000 cells from early passage primary hCEC isolates (n=3) were seeded in black-walled 96-well plates and grown to 70-80% confluency in fully supplemented EGM-2MV. Cultures were serum starved overnight in basal media and then stimulated with recombinant human eotaxin-1 (10 ng/mL), eotaxin-2 (100 ng/mL), eotaxin-3 (2 μg/mL) (Peprotech), or vehicle control (PBS). At 0, 10, 30, 60, or 120 second time-points (n=4 per group), cells were fixed in 3.7% paraformaldehyde for 10 minutes, washed, permeabilized in PBS with 0.1% Triton-X, and then stained with rhodamine labeled Phalloidin (1:200, Invitrogen) per manufacturer's recommendations. Plates were analyzed on a fluorescent plate reader (Synergy 4, Biotek) followed by fluorescent microscopy (Nikon E800).
F-actin polymer ratios between baseline and treated cultures were calculated using a fluorescent based plate assay.

[2] = tested on: Rac-1 GTPase in Human CECs (hCECs); assay: Rac-1 activation assay (GST-Pak1-PBD pull-down, western blot); type: cell-based; conditions: hCEC, eotaxin-1 10 ng/ml, at 10 seconds, normalized against control band density
Protocol: A Rac-1 activation assay was performed. Human CECs were cultured in EGM-2 MV containing 5% FBS. Prior to starting the assay, cells were serum starved with basal medium (MCDB131) supplemented with 1% FB S overnight. Cells were stimulated for designated times with Eotaxin-1, 2 and 3 (10 ng/ml, 100 ng/ml and 2 μg/ml respectively). Equal amounts of lysates (500 μg) were incubated with GST-Pak1-PBD agarose beads (Upstate) to pull-down active GTP-bound Rac-1 at 4° C. for 1 hour with rotation. The samples were subsequently analyzed for bound Rac-1 by western blot analysis using an anti-Rac-1 antibody (Upstate). Band density was measured using VisionWorksLS software (UVP).
hCECs) were stimulated with Eotaxin-1, 2 and 3 for indicated times. Cells without Eotaxin stimulation were used as a control (0 sec). Equal amount (500 μg) of total cell lysates was used to determine the GTP-bound Rac-1 (active) by pull-down assays. Levels of increase of active Rac-1 were measured after normalizing against the control band density.

| Molecule | CNV volume [1] | time of peak F-actin polymerization after stimulation (primary hCEC) | increase of Rac-1 activation [2] |
| --- | --- | --- | --- |
| (S)-Methyl-2-naphthoylamino-3-(4-nitrophenyl)propionate [SB328437] | reduces CNV volume in a dose-dependent and statistically significant manner |  |  |
| Eotaxin-1: recombinant human eotaxin-1 (Peprotech), CCR3 ligand |  | 10 s | about 6.5 fold |
| B1 |  | 10 s |  |
| B2 |  | 10 s |  |
